What was measured:
HT-29 cells = test: Cell proliferation test procedure, HT-29 cells; format: cell-based; conditions: Homo sapiens, read-out: HT-29 prolif IC50
Procedure: HT-29 cells: Compound effectiveness at inhibiting cell proliferation on plastic is performed in a 96-well format by plating 5000 cells per well in appropriate medium on day one, followed by compound addition on day 2 in serial two-fold dilutions. On day five, compound is washed away and medium containing MTS reagent (Promega) is added. Relative cell number is determined by reading the absorbance at 490 nm of a dye produced by an NAD-dependent cellular enzymatic reaction.

[1] = target: T1, Rat2 fibroblasts transformed with v-Src/Hu c-Src fusion gene (Homo sapiens, UniProt P12931, cells depend on it, form not given); test: Anchorage independent Src-transformed fibroblast proliferation test procedure; format: cell-based, rat; conditions: for Src TF prolif % Inh: @ dose 10 μM
T1 construct: fused on or other part: The v-Src frame of Rous sarcoma virus: everything outside the catalytic domain, namely the N-terminal unique/SH3/SH2 part; Candidates are Prague C (P00526), then Schmidt-Ruppin A (P00524)
Description: Anchorage Independent Src-transformed Fibroblast Proliferation Test Procedure: Rat2 fibroblasts stably transformed with a plasmid containing CMV promotor controlled v-Src/Hu c-Src fusion gene in which the catalytic domain of human c-Src is inserted in place of the v-Src catalytic domain in the v-Src gene are used for the measurement of src dependent suspension growth.

[2] = target: T2, recombinant human MEK 1 (MAPKK) and recombinant human ERK2 (MAPK) (Homo sapiens, UniProt P28482+Q02750); test: Mitogen Activated Protein Kinase (MAPK) coupled Mek-Erk test procedure; format: biochemical
T2 construct: GST
Procedure: To evaluate inhibitors of the MAP (mitogen activated protein) kinase a two component coupled standard pharmacological test procedure, which measures phosphorylation of a serine/threonine residue in an appropriate sequence in the substrate in the presence and absence of a putative inhibitor, is used. Recombinant human MEK 1 (MAPKK) is first used to activate recombinant human ERK2 (MAPK) and the activated MAPK (ERK) is incubated with substrate (myelin basic protein peptide (MBPP) or Myc peptide) in the presence of ATP, Mg^+2 and radiolabeled ^33P ATP. The phosphorylated peptide is captured on a P 81 phosphocellulose filter (paper filter or embedded in microtiter plate) washed and counted by scintillation methods.
The peptide substrates used in the assay are MBPP, peptide substrate ([…]), or synthetic Myc substrate, ([…].5 TFA). The recombinant enzymes used are prepared as GST fusion proteins of human ERK 2 and human MEK 1. Inhibitor samples are prepared as 10× stocks in 10% DMSO and an appropriate aliquot is used to deliver either 10 ug/ml for a single point screening dose or 100 to 0.0001 uM final concentration for a dose response curve. Final DMSO concentrations are less than or equal to 1%.
The reaction is run as follows in 50 mM Tris kinase buffer, pH 7.4 in a reaction volume of 50 ul. The appropriate volume of kinase buffer and inhibitor sample is added to the tube. Appropriate dilution of enzyme is delivered to give 2–5 ug recombinant MAPK (Erk) per tube. The inhibitor is incubated with MAPK (Erk) for 30 min at 0 deg. C. Recombinant Mek (MAPKK) (0.5–2.5 ug) or fully activated Mek (0.05–0.1 units) is added to activate the Erk and incubated for 30 min at 30° C. Then substrate and γ^33P ATP are added to give a final concentration of 0.5–1 mM MBPP or 250–500 uM Myc; 0.2–0.5 uCi gamma P 33 ATP/tube; 50 μM ATP final concentration. Samples are incubated at 30° C. for 30 minutes and the reaction is stopped by adding 25 μl of ice cold 10% trichloroacetic acid (TCA). After samples are chilled on ice for 30 min. 20 μl of sample is transferred onto P 81 phosphocellulose filter. Filter papers are washed 2 times with a large volume of 1% acetic acid, then 2 times with water. The filters are briefly air dried before addition of scintillant and samples are counted in the appropriate scintillation counter set up for reading ^33P isotope. Samples include a positive control (activated enzyme plus substrate); a no enzyme control; a no substrate control; samples with different concentrations of putative inhibitor, and samples with reference inhibitors (other active compounds or non-specific inhibitors such as staurosporine or K252 B).
The raw data is captured as cpm. Sample replicates are averaged and corrected for background count. Mean cpm data is tabulated by group and % inhibition by a test compound is calculated as (corrected cpm control−corrected. cpm sample/control)×100=% inhibition).

p60^c-src (Src) = target: T3, p60^c-src (Src) (Homo sapiens, UniProt P12931); test: Src kinase test procedure (Elisa format); format: biochemical
T3 construct: purchased Upstate Biotechnologies
Procedure: Inhibitors of p60^c-src (partially purified preparation purchased from Upstate Biotechnologies) tyrosine kinase activity are analyzed in an Elisa format. […] HRP-conjugated anti-phosphotyrosine is used to detect phosphorylated peptide via a color reaction. Conditions recommended by the manufacturer are employed.
The reaction mixture with the phosphorylated peptide is then transferred to a streptavidin-coated microtiter plate (provided in the kit) and allowed to bind for 20 minutes. Unbound peptide and reaction mixture is decanted and the plate is washed with PBS six times. Horseradish peroxidase-conjugated phosphotyrosine antibody supplied in the kit is incubated with the plate for one hour, then decanted. The plate is again washed with PBS six times.

T1 sequence (P12931 whole entry, change not shown, the tested form may be a part): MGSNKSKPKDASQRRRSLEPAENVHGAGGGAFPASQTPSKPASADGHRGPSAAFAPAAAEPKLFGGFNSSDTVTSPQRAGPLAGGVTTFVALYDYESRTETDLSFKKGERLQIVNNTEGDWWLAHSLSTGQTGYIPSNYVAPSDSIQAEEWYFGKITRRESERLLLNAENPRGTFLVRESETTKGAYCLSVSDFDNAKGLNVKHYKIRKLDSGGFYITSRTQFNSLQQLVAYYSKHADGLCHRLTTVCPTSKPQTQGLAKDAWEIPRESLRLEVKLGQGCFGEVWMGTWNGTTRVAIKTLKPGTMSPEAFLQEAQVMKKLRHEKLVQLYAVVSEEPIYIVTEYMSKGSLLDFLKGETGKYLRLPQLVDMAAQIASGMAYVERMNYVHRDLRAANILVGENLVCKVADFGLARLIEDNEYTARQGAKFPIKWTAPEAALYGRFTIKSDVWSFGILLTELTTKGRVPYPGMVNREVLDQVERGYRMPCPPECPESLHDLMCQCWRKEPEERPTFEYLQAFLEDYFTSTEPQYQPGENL
T3 sequence (P12931 whole entry, species assumed): as the sequence (P12931 whole entry, change not shown, the tested form may be a part) above

Row | SMILES | IC50 (HT-29 cells) [nM] | melting point | Src TF prolif % Inh [1] [%] | Mek-Erk IC50 [2] [nM] | also measured
1 | COc1cc(Nc2c(C#N)cnc3cc4cc(OCCN5CCOCC5)c(OC)cc4cc23)c(Cl)cc1C [Example 216, 4-(2-Chloro-5-methoxy-4-methylphenylamino)-7-methoxy-8-(2-morpholin-4-yl-ethoxy)benzo[g]quinoline-3-carbonitrile] | 9950 | 220 to 222 °C | – | – | –
2 | COc1cc(Nc2c(C#N)cnc3c2C=C2N=CN=C2C3)c(Br)cc1Cl [Example 39, 8-(2-Bromo-4-chloro-5-methoxyphenylamino)imidazo[4,5-g]quinoline-7-carbonitrile] | – | 257 °C (dec.) | 25 | 1300 | –
3 | COc1cc(Nc2c(C#N)cnc3cc4cc(OCCN5CCN(C)CC5)c(OC)cc4cc23)c(C)cc1Cl [Example 133, 4-(4-chloro-5-methoxy-2-methylanilino)-7-methoxy-8-[2-(4-methyl 1-piperazinyl)ethoxy]benzo[g]quinoline-3-carbonitrile] | 8600 | – | – | – | –
4 | COc1cc(Nc2c(C#N)cnc3c2sc2ccc([N+](=O)[O-])cc23)c(C)cc1Cl [Example 75] | – | – | – | – | Src % Inh (p60^c-src (Src); dose 10 μM): 0%
5 | COc1cc(Nc2c(C#N)cnc3cc4cc(OCCN5CCN(C)CC5)c(OC)cc4cc23)c(Cl)cc1C [Example 203] | – | – | – | – | GI50 ([1]; rat2 fibroblasts transformed with v-src/hu c-src fusion gene, read-out: Src TF prolif IC50): 71 nM; IC50 (p60^c-src (Src)): 4.2 nM
6 | COc1ccc(Cl)c(Nc2c(C#N)cnc3c2C=C2N=CN=C2C3)c1 [Example 40, 8-(2-Chloro-5-methoxy-phenylamino)imidazo[4,5-g]quinoline-7-carbonitrile] | – | 296 to 298 °C | 0 | 500 | –

— patent US7105531B2, “Tricyclic protein kinase inhibitors” (WYETH, priority 1999, dated 2006)
